Laboratory results as given in patent US8501806B2, “Methods for preventing or reducing colon carcinogenesis” (Nogra Pharma Limited, priority 2008, dated 2013).

Columns and labels:
4T1 cells = experiment: CFSE cell proliferation assay, 4T1 cells; format: cell-based, BALB/c; settings: FIG. 9; graded doses, 24 hours
Procedure: All reagents were from Sigma-Aldrich (Milan, Italy), unless specified. Compound 14 was dissolved as a 25 mM stock solution in culture medium. 4T1 cells, a 6-thioguanine-resistant cell line derived from a BALB/c mammary carcinoma which spontaneously metastasizes to both the lung and liver, were obtained by ATCC and maintained at 37° C. in a humidified atmosphere of 5% CO2 in Dulbecco's modified Eagle's Medium (DMEM) supplemented with 10% inactivated fetal bovine serum (FBS) and 1% penicillin-streptomycin. For cell growth assays, serum-starved 4T1 cells were labeled with carboxyfluorescein diacetate succinimidyl ester (CFSE) (Invitrogen, Milan Italy) at 37° C. for 30 minutes, and then treated with increasing doses of compound 14. After 24 hours, cells were incubated with 5 μg/ml of propidium iodide (PI) for 15 minutes, at 4° C. CFSE and/or PI-positive cells were determined by flow cytometry (Becton Dickinson, Milan, Italy)

HT-29 cells = experiment: CFSE cell proliferation assay, HT-29 cells; format: cell-based, human; settings: FIG. 2; graded doses
Procedure: All reagents used in Examples 1-3 were from Sigma-Aldrich (Milan, Italy) unless specified. Compounds were dissolved as a 25 mM stock solution in culture medium, and the pH of the solution was adjusted to 7.4, if necessary, with NaOH. The human CRC cell lines, HCT-116 and HT-29 (expressing either wild-type or mutated p53 respectively), were maintained in McCoy's 5A supplemented with 10% fetal bovine serum (FBS), 1% penicillin/streptomycin, and 50 μg/ml gentamycin. The murine CRC cell line, CT26, was maintained in RPMI 1640 medium supplemented with 10% FBS and 1% penicillin/streptomycin.
For cell growth assays, serum-starved HCT-116, HT-29, and CT26 cells were plated in appropriate complete medium at 2×10^5 cells/ml/well in 6-well culture dishes and allowed to adhere overnight. Cells were then labeled with carboxyfluorescein diacetate succinimidyl ester (CFSE) (Invitrogen, Milan Italy) at 37° C. according to the manufacturer's instruction. After 30 minutes, the medium was removed and fresh media containing 0.05% bovine serum albumin (BSA), and increasing doses of 5-ASA or disclosed compounds were added. […] CFSE and/or PI-positive cells were determined by flow cytometry (Becton Dickinson, FACSCalibur, Milan, Italy). […] The percentage of proliferating cells was then evaluated by flow cytometry.

CDK2 = CDK2 phosphorylation by Western blotting; format: cell-based, human; settings: FIG. 6, HCT-116 cells
From the text: One of 4 representative Western blots is shown.

fibroblasts = experiment: Proliferation of normal fibroblasts; format: cell-based; settings: FIG. 4B; 48 hours
HCT-116 cells = experiment: Cell cycle distribution (BrdU/PI flow cytometry); format: cell-based, human; settings: FIG. 5; increasing concentrations, 24 hours
Procedure: For analysis of cell cycle distribution, serum-starved cells were cultured in medium containing 0.05% BSA and the desiderated concentrations of compound 14 for 24 hours. Cells were pulsed with 10 μM BrdU for 60 minutes, then collected, washed twice with PBS 1×, fixed in 70% cold ethanol, and stored at −20° C. for at least 3 hours. Afterwards, cells were washed twice with PBS 1×, denatured in 2M HCl and stained with anti-BrdU monoclonal antibody (Immunotech, Marseille, France) followed by FITC-conjugated secondary anti-mouse IgG (Molecular Probes/Invitrogen, Milan, Italy). After staining with 100 μg/ml PI, cells were analyzed by flow cytometry. […] HCT-116 cells were treated with or without compound 14 for 24 hours. Values in FIG. 5 are the percentages of cells in the different phases of cell cycle and indicate mean±SD of 4 experiments (untreated vs compound 14-treated cells * P<0.04, ** P<0.001). Right insets show representative dot-plots of the cell cycle distribution.

4T1-derived metastasis = experiment: 4T1 spontaneous metastasis, clonogenic metastasis assay; format: in vivo, Balb/c mice; settings: FIG. 11; daily i.p. 8 mg/kg/mouse, sacrificed at day 35
Procedure: Spontaneous metastases were measured by adapting methods described previously by Pulaski and Ostrand-Rosenberg (Cancer Research 58, 1486-1493, 1998). 4T1 tumor cells (1×10^5 cells in 100 μl 1×PBS) were injected s.c. in the abdominal mammary gland of 8-10 weeks old female Balb/c mice. Three days after 4T1 injection, mice received daily i.p. administration of compound 14 (8 mg/kg/mouse) or PBS (control). Mice were monitored over the time for weight loss and sacrificed at day 35. Lungs and liver were removed from each mouse, and treated as follows: liver samples were finely minced and digested with an enzyme solution containing 1×PBS, 0.01% BSA, 1 mg/ml hyaluronidase, and 1 mg/ml collagenase type I for 20 min at 37° C. on a platform rocker; lung samples were finely minced and digested with an enzyme cocktail containing 1×PBS, 1 mg/ml collagenase type IV and 10 units/ml elastase for 1 h at […] on a rotating wheel. At the end, samples were filtered through 70 μm nylon cell strainers and washed three times with 1×PBS. The resulting cell preparations were resuspended and plated neat or serially diluted in 10-cm tissue culture dishes in 20 ml of medium containing 60 μM 6-thioguanine. Suspensions were incubated in 10% CO2-air atmosphere at 37° C. for clonogenic growth. […] Total colony-forming cells were calculated on a per-organ basis. […]

With `COc1ccc(N)cc1C(=O)NO` [compound 14, 2-methoxy-5-amino-N-hydroxybenzamide] the “in vitro proliferation of 4T1 cells” value (4T1 cells) was “dose-dependently inhibited”, the “proliferation of HT-29 cells” value (HT-29 cells) was “dose-dependently inhibited” and the “CDK2 phosphorylation on threonin 14 and tyrosine 15” value (CDK2) was “enhanced phosphorylation”. The “proliferation of normal fibroblasts” value (fibroblasts) was “did not affect”, the “cells in G0/G1 phase” value (HCT-116 cells) was “progressive accumulation” and the “cells with S and G2/M phase DNA content” value (HCT-116 cells) was “decrease”. For the same molecule, the “number of liver metastatic tumor cells” value (4T1-derived metastasis) was “reduction” and the “number of lung metastatic tumor cells” value (4T1-derived metastasis) was “reduction”.
